# Reference: patent US20230356105A1, “TETRAAZADODECANE BASED CHELATING AGENTS FOR SEPARATION OF RARE EARTH ELEMENTS AND METHOD THEREFOR” (Ustav Organicke Chemie a Biochemie AV CR V.V.I., priority 2020, published 2023)
# Columns and labels:
# Assay type in all cases: physicochemical
# [1] = Separation of binary mixture of rare-earth metals by precipitation using L1, MOPS pH 8.5 (Example 8); conditions: supernatant
# Description: Analogous to Example 7), the well plate was then centrifuged and concentrations of the metals were determined using ICP-OES. The resulting concentrations of both metals in the supernatants and their ratios are summarized in […]
# [2] = Separation of binary mixture of rare-earth metals by precipitation from solution using L1 (Example 7); conditions: supernatant
# Description: Two series of reaction mixtures were prepared, where one rare-earth metal was held constant (Gd or Lu) while the other was a variable rare-earth metal element (except Pm). […] The well plate was sealed with transparent adhesive tape to prevent evaporation and was anchored to a shaker. The well-plate was shaken for 5 days at room temperature at 900 rpm.
# [3] = Separation of Nd/Pr/Tb/Dy mixture by precipitation using L5 and acetate (Example 22); conditions: for solution after 20 hrs / solution after 2 days: acetate buffer pH=5.8; for solution after 20 hrs composition / solution after 2 days composition: percent molar
# Description: A reaction mixture was prepared analogously to Example 21), with the differences being the use of sodium acetate buffer pH=5.8 in place of MOPS pH=7, an additional aliquot taken for analysis after 2 days, and the lack of ICP-OES analysis on the precipitated portions of the solution — that is, only the supernatants were analysed. Otherwise, the reaction was run analogously to Example 21). The percent molar composition of each is also provided, showing the improved selectivity in precipitation under these conditions, compared to Example 21).
compound,measurement,setting,value
"O=C(O)CN1CCN(CC(=O)O)CCN(Cc2ccccc2)CCN(CC(=O)O)CC1 [L1, 2,2′,2″-(10-benzyl-1,4,7,10-tetraazacyclododecane-1,4,7-triyl)triacetic Acid]",[mM] M1,"[1]; M1=Ce, M2=Er",0.280 mM
same,[mM] M1,"[1]; M1=Ce, M2=Tm",0.425 mM
same,[mM] Tm,"[1]; M1=Ce, M2=Tm",2.035 mM
same,M1/Er,[1]; M1=Ce,0.51
same,[mM] M1,"[1]; M1=Dy, M2=Er",0.338 mM
same,[mM] M1,"[1]; M1=Dy, M2=Tm",0.362 mM
same,[mM] Tm,"[1]; M1=Dy, M2=Tm",2.382 mM
same,M1/Er,[1]; M1=Dy,0.34
same,[mM] M1,"[1]; M1=Er, M2=Er",4.969 mM
same,[mM] M1,"[1]; M1=Er, M2=Tm",2.759 mM
same,[mM] Tm,"[1]; M1=Er, M2=Tm",3.368 mM
same,M1/Er,[1]; M1=Er,1.00
same,[mM] Er,"[1]; M1=Eu, M2=Er",0.680 mM
same,[mM] M1,"[1]; M1=Eu, M2=Er",0.244 mM
same,[mM] M1,"[1]; M1=Eu, M2=Tm",0.244 mM
same,[mM] Tm,"[1]; M1=Eu, M2=Tm",2.091 mM
same,M1/Er,[1]; M1=Eu,0.36
same,[mM] Er,"[1]; M1=Gd, M2=Er",0.972 mM
same,[mM] M1,"[1]; M1=Gd, M2=Er",0.402 mM
same,[mM] M1,"[1]; M1=Gd, M2=Tm",0.254 mM
same,[mM] Tm,"[1]; M1=Gd, M2=Tm",1.814 mM
same,M1/Er,[1]; M1=Gd,0.41
same,[mM] M1,"[1]; M1=Ho, M2=Er",0.496 mM
same,[mM] M1,"[1]; M1=Ho, M2=Tm",0.521 mM
same,[mM] Tm,"[1]; M1=Ho, M2=Tm",2.329 mM
same,M1/Er,[1]; M1=Ho,0.60
same,[mM] M1,"[1]; M1=La, M2=Er",0.368 mM
same,[mM] M1,"[1]; M1=La, M2=Tm",0.616 mM
same,[mM] Tm,"[1]; M1=La, M2=Tm",2.425 mM
same,M1/Er,[1]; M1=La,0.57
same,[mM] M1,"[1]; M1=Lu, M2=Er",7.607 mM
same,[mM] M1,"[1]; M1=Lu, M2=Tm",7.337 mM
same,[mM] Tm,"[1]; M1=Lu, M2=Tm",4.588 mM
same,M1/Er,[1]; M1=Lu,1.67
same,[mM] Er,"[1]; M1=Nd, M2=Er",0.692 mM
same,[mM] M1,"[1]; M1=Nd, M2=Er",0.280 mM
same,[mM] M1,"[1]; M1=Nd, M2=Tm",0.315 mM
same,[mM] Tm,"[1]; M1=Nd, M2=Tm",1.892 mM
same,M1/Er,[1]; M1=Nd,0.40
same,[mM] M1,"[1]; M1=Pr, M2=Er",0.210 mM
same,[mM] M1,"[1]; M1=Pr, M2=Tm",0.298 mM
same,[mM] Tm,"[1]; M1=Pr, M2=Tm",2.016 mM
same,M1/Er,[1]; M1=Pr,0.32
same,[mM] M1,"[1]; M1=Sc, M2=Er",5.191 mM
same,[mM] M1,"[1]; M1=Sc, M2=Tm",5.087 mM
same,[mM] Tm,"[1]; M1=Sc, M2=Tm",4.448 mM
same,M1/Er,[1]; M1=Sc,1.16
same,[mM] Er,"[1]; M1=Sm, M2=Er",0.734 mM
same,[mM] M1,"[1]; M1=Sm, M2=Er",0.197 mM
same,[mM] M1,"[1]; M1=Sm, M2=Tm",0.218 mM
same,[mM] Tm,"[1]; M1=Sm, M2=Tm",2.090 mM
same,M1/Er,[1]; M1=Sm,0.27
same,[mM] M1,"[1]; M1=Tb, M2=Er",0.225 mM
same,[mM] M1,"[1]; M1=Tb, M2=Tm",0.225 mM
same,[mM] Tm,"[1]; M1=Tb, M2=Tm",2.342 mM
same,M1/Er,[1]; M1=Tb,0.28
same,[mM] M1,"[1]; M1=Tm, M2=Er",3.971 mM
same,[mM] M1,"[1]; M1=Tm, M2=Tm",4.779 mM
same,[mM] Tm,"[1]; M1=Tm, M2=Tm",4.779 mM
same,M1/Er,[1]; M1=Tm,1.73
same,[mM] M1,"[1]; M1=Y, M2=Er",0.503 mM
same,[mM] M1,"[1]; M1=Y, M2=Tm",0.480 mM
same,[mM] Tm,"[1]; M1=Y, M2=Tm",2.367 mM
same,M1/Er,[1]; M1=Y,0.56
same,[mM] M1,"[1]; M1=Yb, M2=Er",5.400 mM
same,[mM] M1,"[1]; M1=Yb, M2=Tm",5.477 mM
same,[mM] Tm,"[1]; M1=Yb, M2=Tm",4.598 mM
same,M1/Er,[1]; M1=Yb,1.25
same,[mM] Gd,"[2]; M1=Ce, M2=Gd",0.149 mM
same,[mM] M1,"[2]; M1=Ce, M2=Gd",0.349 mM
same,[mM] Lu,"[2]; M1=Ce, M2=Lu",5.174 mM
same,[mM] M1,"[2]; M1=Ce, M2=Lu",5.195 mM
same,[mM] Gd,"[2]; M1=Dy, M2=Gd",0.196 mM
same,[mM] M1,"[2]; M1=Dy, M2=Gd",0.344 mM
same,[mM] Lu,"[2]; M1=Dy, M2=Lu",5.252 mM
same,[mM] M1,"[2]; M1=Dy, M2=Lu",5.268 mM
same,[mM] Gd,"[2]; M1=Er, M2=Gd",5.127 mM
same,[mM] M1,"[2]; M1=Er, M2=Gd",5.697 mM
same,[mM] Lu,"[2]; M1=Er, M2=Lu",5.298 mM
same,[mM] M1,"[2]; M1=Er, M2=Lu",5.558 mM
same,[mM] Gd,"[2]; M1=Eu, M2=Gd",0.141 mM
same,[mM] M1,"[2]; M1=Eu, M2=Gd",0.157 mM
same,[mM] Lu,"[2]; M1=Eu, M2=Lu",6.000 mM
same,[mM] M1,"[2]; M1=Eu, M2=Lu",5.459 mM
same,[mM] Gd,"[2]; M1=Gd, M2=Gd",0.208 mM
same,[mM] M1,"[2]; M1=Gd, M2=Gd",0.208 mM
same,[mM] Lu,"[2]; M1=Gd, M2=Lu",3.875 mM
same,[mM] M1,"[2]; M1=Gd, M2=Lu",0.325 mM
same,[mM] Gd,"[2]; M1=Ho, M2=Gd",0.219 mM
same,[mM] M1,"[2]; M1=Ho, M2=Gd",0.522 mM
same,[mM] Lu,"[2]; M1=Ho, M2=Lu",5.643 mM
same,[mM] M1,"[2]; M1=Ho, M2=Lu",5.424 mM
same,[mM] Gd,"[2]; M1=La, M2=Gd",0.134 mM
same,[mM] M1,"[2]; M1=La, M2=Gd",0.535 mM
same,[mM] Lu,"[2]; M1=La, M2=Lu",5.188 mM
same,[mM] M1,"[2]; M1=La, M2=Lu",4.968 mM
same,[mM] Gd,"[2]; M1=Lu, M2=Gd",0.291 mM
same,[mM] M1,"[2]; M1=Lu, M2=Gd",4.93 mM
same,[mM] Lu,"[2]; M1=Lu, M2=Lu",5.403 mM
same,[mM] M1,"[2]; M1=Lu, M2=Lu",5.403 mM
same,[mM] Gd,"[2]; M1=Nd, M2=Gd",0.169 mM
same,[mM] M1,"[2]; M1=Nd, M2=Gd",0.249 mM
same,[mM] Lu,"[2]; M1=Nd, M2=Lu",4.301 mM
same,[mM] M1,"[2]; M1=Nd, M2=Lu",0.456 mM
same,[mM] Gd,"[2]; M1=Pr, M2=Gd",0.161 mM
same,[mM] M1,"[2]; M1=Pr, M2=Gd",0.268 mM
same,[mM] Lu,"[2]; M1=Pr, M2=Lu",5.165 mM
same,[mM] M1,"[2]; M1=Pr, M2=Lu",5.067 mM
same,[mM] Gd,"[2]; M1=Sc, M2=Gd",0.295 mM
same,[mM] M1,"[2]; M1=Sc, M2=Gd",5.882 mM
same,[mM] Lu,"[2]; M1=Sc, M2=Lu",4.903 mM
same,[mM] M1,"[2]; M1=Sc, M2=Lu",5.49 mM
same,[mM] Gd,"[2]; M1=Sm, M2=Gd",0.165 mM
same,[mM] M1,"[2]; M1=Sm, M2=Gd",0.179 mM
same,[mM] Lu,"[2]; M1=Sm, M2=Lu",4.229 mM
same,[mM] M1,"[2]; M1=Sm, M2=Lu",0.305 mM
same,[mM] Gd,"[2]; M1=Tb, M2=Gd",0.162 mM
same,[mM] M1,"[2]; M1=Tb, M2=Gd",0.235 mM
same,[mM] Lu,"[2]; M1=Tb, M2=Lu",5.094 mM
same,[mM] M1,"[2]; M1=Tb, M2=Lu",5.272 mM
same,[mM] Gd,"[2]; M1=Tm, M2=Gd",0.239 mM
same,[mM] M1,"[2]; M1=Tm, M2=Gd",2.653 mM
same,[mM] Lu,"[2]; M1=Tm, M2=Lu",5.423 mM
same,[mM] M1,"[2]; M1=Tm, M2=Lu",5.453 mM
same,[mM] Gd,"[2]; M1=Y, M2=Gd",0.183 mM
same,[mM] M1,"[2]; M1=Y, M2=Gd",0.471 mM
same,[mM] Lu,"[2]; M1=Y, M2=Lu",5.188 mM
same,[mM] M1,"[2]; M1=Y, M2=Lu",5.24 mM
same,[mM] Gd,"[2]; M1=Yb, M2=Gd",0.279 mM
same,[mM] M1,"[2]; M1=Yb, M2=Gd",4.218 mM
same,[mM] Lu,"[2]; M1=Yb, M2=Lu",5.148 mM
same,[mM] M1,"[2]; M1=Yb, M2=Lu",5.226 mM
"O=C(O)CN1CCN(CC(=O)O)CCN(Cc2cccc3ccccc23)CCN(CC(=O)O)CC1 [L5, 2,2′,2″-(10-(naphthalene-1-ylmethyl)-1,4,7,10-tetraazacyklododekane-1,4,7-triyl)triacetic acid]",solution after 20 hrs,[3]; Ln=Dy,5.41 mM
same,solution after 2 days,[3]; Ln=Dy,5.00 mM
same,solution after 20 hrs composition,[3]; Ln=Dy,16.4%
same,solution after 2 days composition,[3]; Ln=Dy,28.1%
same,solution after 20 hrs,[3]; Ln=Nd,17.01 mM
same,solution after 2 days,[3]; Ln=Nd,6.42 mM
same,solution after 20 hrs composition,[3]; Ln=Nd,51.5%
same,solution after 2 days composition,[3]; Ln=Nd,36.1%
same,solution after 20 hrs,[3]; Ln=Pr,4.78 mM
same,solution after 2 days,[3]; Ln=Pr,1.57 mM
same,solution after 20 hrs composition,[3]; Ln=Pr,14.5%
same,solution after 2 days composition,[3]; Ln=Pr,8.8%
same,solution after 20 hrs,[3]; Ln=Tb,5.84 mM
same,solution after 2 days,[3]; Ln=Tb,4.77 mM
same,solution after 20 hrs composition,[3]; Ln=Tb,17.7%
same,solution after 2 days composition,[3]; Ln=Tb,26.9%
